Measured values published in paper PMC10746543, “Design principles for cyclin K molecular glue degraders” (Nature Chemical Biology, 2023).
“And” between values parts separate entries of the source, which are not always exact repeats. Equal values may be shown once.

Legend:
CDK12–cyclin K = CDK12–cyclin K (Homo sapiens, UniProt Q9NYV4); assay: Lanthascreen kinase binding assay, CDK12; details: for IC50: Supplementary Table 2, read-out: Lanthascreen IC50 [nM] CDK12; for Lanthascreen raw signal, sheet CDK12: duplicates
CDK12–cyclin K, sequence (Q9NYV4 713-1052): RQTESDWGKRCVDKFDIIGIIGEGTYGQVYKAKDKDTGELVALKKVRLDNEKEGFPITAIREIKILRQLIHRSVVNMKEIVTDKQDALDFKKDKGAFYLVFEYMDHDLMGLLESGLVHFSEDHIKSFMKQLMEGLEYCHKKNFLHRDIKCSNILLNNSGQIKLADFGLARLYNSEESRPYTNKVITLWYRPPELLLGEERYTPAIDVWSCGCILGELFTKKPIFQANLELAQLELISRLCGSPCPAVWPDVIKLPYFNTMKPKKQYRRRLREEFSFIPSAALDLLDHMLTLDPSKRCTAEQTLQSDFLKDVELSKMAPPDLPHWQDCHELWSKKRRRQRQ
CDK12–cyclin K, sequence (O75909 1-267 partner limits assumed): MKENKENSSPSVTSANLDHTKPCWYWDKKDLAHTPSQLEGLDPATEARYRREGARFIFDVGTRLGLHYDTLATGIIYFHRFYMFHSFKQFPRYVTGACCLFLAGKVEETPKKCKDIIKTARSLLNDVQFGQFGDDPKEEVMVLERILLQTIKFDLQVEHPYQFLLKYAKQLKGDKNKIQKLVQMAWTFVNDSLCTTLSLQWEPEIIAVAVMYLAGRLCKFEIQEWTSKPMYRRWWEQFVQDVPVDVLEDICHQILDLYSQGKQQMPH
Method: Lanthascreen experiments were performed using commercially available reagents (Thermo Fisher) and according to the manufacturer’s instructions.

CDK12–cyclin K and DDB1 = biological target: T1, CDK12–cyclin K and DDB1 (Homo sapiens, UniProt Q16531+Q9NYV4, K965R); assay: TR-FRET Kd determination, quadratic fit, 50 nM or 10 nM CDK12–cyclin K; format: binding; details: for Kd / TR-FRET Kd*: n = 1
T1 construct: His6–CDK12 (a.a. 713–1,052); full-length or beta-propeller B domain deletion (ΔBPB: a.a. 396–705 deleted) constructs of His6–DDB1ΔBPB, StrepII–Avi–DDB1, or His6–Spy–DDB1; made in house; host or cells: Trichoplusia ni High Five insect cells (baculovirus)
T1 sequence (Q9NYV4 713-1052 K965R): as the sequence (Q9NYV4 713-1052) above, with K253R counted along it
T1 sequence (O75909 1-267 partner): as the sequence (O75909 1-267 partner limits assumed) above
T1 sequence (Q16531 whole entry): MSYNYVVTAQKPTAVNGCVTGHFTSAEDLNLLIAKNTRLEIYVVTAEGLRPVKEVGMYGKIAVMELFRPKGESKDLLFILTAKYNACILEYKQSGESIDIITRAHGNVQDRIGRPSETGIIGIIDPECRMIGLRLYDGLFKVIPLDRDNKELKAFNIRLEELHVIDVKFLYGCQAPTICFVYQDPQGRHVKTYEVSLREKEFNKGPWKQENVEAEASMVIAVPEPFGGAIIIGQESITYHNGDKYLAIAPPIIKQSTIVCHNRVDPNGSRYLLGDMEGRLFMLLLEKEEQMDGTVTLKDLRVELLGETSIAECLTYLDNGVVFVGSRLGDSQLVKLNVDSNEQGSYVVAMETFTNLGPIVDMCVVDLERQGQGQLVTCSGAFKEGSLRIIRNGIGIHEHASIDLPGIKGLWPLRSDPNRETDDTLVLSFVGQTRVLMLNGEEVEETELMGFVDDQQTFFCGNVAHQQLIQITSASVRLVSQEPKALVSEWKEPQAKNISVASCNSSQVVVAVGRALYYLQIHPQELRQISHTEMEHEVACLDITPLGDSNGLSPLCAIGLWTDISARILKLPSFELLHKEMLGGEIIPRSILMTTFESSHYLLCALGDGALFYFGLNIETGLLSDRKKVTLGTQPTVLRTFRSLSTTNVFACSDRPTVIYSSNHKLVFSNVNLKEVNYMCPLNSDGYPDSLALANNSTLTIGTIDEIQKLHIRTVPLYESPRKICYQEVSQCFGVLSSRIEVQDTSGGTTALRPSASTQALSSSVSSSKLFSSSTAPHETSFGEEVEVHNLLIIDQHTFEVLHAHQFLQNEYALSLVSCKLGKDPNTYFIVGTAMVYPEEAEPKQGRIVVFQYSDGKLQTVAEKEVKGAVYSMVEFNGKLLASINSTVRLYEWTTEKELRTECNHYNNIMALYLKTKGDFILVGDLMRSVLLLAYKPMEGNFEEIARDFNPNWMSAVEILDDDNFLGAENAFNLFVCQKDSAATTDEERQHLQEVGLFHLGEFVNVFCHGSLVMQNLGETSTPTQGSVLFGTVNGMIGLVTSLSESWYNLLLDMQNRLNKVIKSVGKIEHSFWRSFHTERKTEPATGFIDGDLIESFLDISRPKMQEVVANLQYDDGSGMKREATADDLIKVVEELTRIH
Text: Equation (2) is a quadratic binding equation used for Kd determination,where Top and Bottom refer to the curve plateaus. […]

[1] = 10 nM CDK12-cyclin K + 100 nM DDB1
[2] = 10 nM CDK12-cyclin K, compound 0.468 nM
[3] = 10 nM CDK12-cyclin K, compound 2.16 nM
[4] = 10 nM CDK12-cyclin K, compound 3.6 nM
[5] = 10 nM CDK12-cyclin K, compound 7.92 nM
[6] = 10 nM CDK12-cyclin K, compound 15.84 nM
[7] = 10 nM CDK12-cyclin K, compound 30.96 nM
[8] = 10 nM CDK12-cyclin K, compound 62.6399 nM
[9] = 10 nM CDK12-cyclin K, compound 125.279 nM
[10] = 10 nM CDK12-cyclin K, compound 244.8 nM
[11] = 10 nM CDK12-cyclin K, compound 993.6 nM
[12] = 10 nM CDK12-cyclin K, compound 2001.6 nM
[13] = 50 nM CDK12-cyclin K + 100 nM DDB1
[14] = 50 nM CDK12-cyclin K, compound 0.468 nM
[15] = 50 nM CDK12-cyclin K, compound 2.16 nM
[16] = 50 nM CDK12-cyclin K, compound 3.6 nM
[17] = 50 nM CDK12-cyclin K, compound 7.92 nM
[18] = 50 nM CDK12-cyclin K, compound 15.84 nM
[19] = 50 nM CDK12-cyclin K, compound 30.96 nM
[20] = 50 nM CDK12-cyclin K, compound 62.6399 nM
[21] = 50 nM CDK12-cyclin K, compound 125.279 nM
[22] = 50 nM CDK12-cyclin K, compound 244.8 nM
[23] = 50 nM CDK12-cyclin K, compound 993.6 nM
[24] = 50 nM CDK12-cyclin K, compound 2001.6 nM

| SMILES | IC50 (CDK12–cyclin K) [nM] | Kd (CDK12–cyclin K and DDB1; [1]) [nM] | TR-FRET Kd* (CDK12–cyclin K and DDB1; [1]) | TR-FRET signal (CDK12–cyclin K and DDB1; [2]) | TR-FRET signal (CDK12–cyclin K and DDB1; [3]) | TR-FRET signal (CDK12–cyclin K and DDB1; [4]) | TR-FRET signal (CDK12–cyclin K and DDB1; [5]) | TR-FRET signal (CDK12–cyclin K and DDB1; [6]) | TR-FRET signal (CDK12–cyclin K and DDB1; [7]) | TR-FRET signal (CDK12–cyclin K and DDB1; [8]) | TR-FRET signal (CDK12–cyclin K and DDB1; [9]) | TR-FRET signal (CDK12–cyclin K and DDB1; [10]) | TR-FRET signal (CDK12–cyclin K and DDB1; [11]) | TR-FRET signal (CDK12–cyclin K and DDB1; [12]) | Kd (CDK12–cyclin K and DDB1; [13]) [nM] | TR-FRET signal (CDK12–cyclin K and DDB1; [14]) | TR-FRET signal (CDK12–cyclin K and DDB1; [15]) | TR-FRET signal (CDK12–cyclin K and DDB1; [16]) | TR-FRET signal (CDK12–cyclin K and DDB1; [17]) | TR-FRET signal (CDK12–cyclin K and DDB1; [18]) | further results |
| --- | --- | --- | --- | --- | --- | --- | --- | --- | --- | --- | --- | --- | --- | --- | --- | --- | --- | --- | --- | --- | --- |
| CC[C@H](CO)Nc1nc(NCc2nc3cc(Cl)c(Cl)cc3[nH]2)c2ncn(C(C)C)c2n1 [DS17] | 117 | < 1 | subnanomolar range | 0.1296 | 0.2552 | 0.4087 | 0.5094 | 0.5468 | 0.5623 | 0.5693 | 0.582 | 0.5785 | 0.5613 | 0.5626 | < 1 | 0.2322 | 0.3077 | 0.4714 | 0.8383 | 1.774 | CDK inhibitory selectivity, result in words (CDK12–cyclin K; Lanthascreen across CDK2/9/12): CDK12 selective; Lanthascreen raw signal, sheet CDK12 (CDK12–cyclin K; compound 0.038147 nM, series r37): 0.01439 and 0.01466; Lanthascreen raw signal, sheet CDK12 (CDK12–cyclin K; compound 0.152588 nM, series r37): 0.01355 and 0.01465; Lanthascreen raw signal, sheet CDK12 (CDK12–cyclin K; compound 0.610352 nM, series r37): 0.01399 and 0.01278; Lanthascreen raw signal, sheet CDK12 (CDK12–cyclin K; compound 9.76563 nM, series r37): 0.01302 and 0.01264; Lanthascreen raw signal, sheet CDK12 (CDK12–cyclin K; compound 39.0625 nM, series r37): 0.01048 and 0.01099; Lanthascreen raw signal, sheet CDK12 (CDK12–cyclin K; compound 156.25 nM, series r37): 0.008496 and 0.009307; Lanthascreen raw signal, sheet CDK12 (CDK12–cyclin K; compound 625 nM, series r37): 0.00749 and 0.007398; Lanthascreen raw signal, sheet CDK12 (CDK12–cyclin K; compound 2500 nM, series r37): 0.006169 and 0.00594; Lanthascreen raw signal, sheet CDK12 (CDK12–cyclin K; compound 10000 nM, series r37): 0.005029 and 0.005256; TR-FRET signal (CDK12–cyclin K and DDB1; [19]): 3.053; TR-FRET signal (CDK12–cyclin K and DDB1; [20]): 3.258; TR-FRET signal (CDK12–cyclin K and DDB1; [21]): 3.326; TR-FRET signal (CDK12–cyclin K and DDB1; [22]): 3.353; TR-FRET signal (CDK12–cyclin K and DDB1; [23]): 3.25; TR-FRET signal (CDK12–cyclin K and DDB1; [24]): 3.218 |
| Cc1cc2nc(CNc3nc(N4CCN(C)CC4)nc4c(Br)cnn34)[nH]c2cc1C [DS73, reference compound] | 25 | 0.2 ± 0.3 | subnanomolar range | 0.1115 | 0.172 | 0.3284 | 0.4288 | 0.4992 | 0.5275 | 0.5247 | 0.5329 | 0.5439 | 0.5387 | 0.5235 | 2 ± 1 | 0.2245 | 0.505 | 0.4237 | 0.5318 | 0.9093 | Lanthascreen raw signal, sheet CDK12 (CDK12–cyclin K; compound 1.02544 nM, series r1): 0.01046 and 0.009798; Lanthascreen raw signal, sheet CDK12 (CDK12–cyclin K; compound 3.15521 nM, series r1): 0.009054 and 0.008698; Lanthascreen raw signal, sheet CDK12 (CDK12–cyclin K; compound 9.46563 nM, series r1): 0.00642 and 0.008208; Lanthascreen raw signal, sheet CDK12 (CDK12–cyclin K; compound 31.5521 nM, series r1): 0.007402 and 0.006928; Lanthascreen raw signal, sheet CDK12 (CDK12–cyclin K; compound 99.3891 nM, series r1): 0.007817 and 0.006924; Lanthascreen raw signal, sheet CDK12 (CDK12–cyclin K; compound 315.521 nM, series r1): 0.006025 and 0.005353; Lanthascreen raw signal, sheet CDK12 (CDK12–cyclin K; compound 3155.21 nM, series r1): 0.005515 and 0.005262; Lanthascreen raw signal, sheet CDK12 (CDK12–cyclin K; compound 10002 nM, series r1): 0.006527 and 0.0053; TR-FRET signal (CDK12–cyclin K and DDB1; [19]): 1.797; TR-FRET signal (CDK12–cyclin K and DDB1; [20]): 2.967; TR-FRET signal (CDK12–cyclin K and DDB1; [21]): 3.159; TR-FRET signal (CDK12–cyclin K and DDB1; [22]): 3.183; TR-FRET signal (CDK12–cyclin K and DDB1; [23]): 3.081; TR-FRET signal (CDK12–cyclin K and DDB1; [24]): 3.197 |
